# Data published in paper PMC11472058, “Trinucleotide cap analogs with triphosphate chain modifications: synthesis, properties, and evaluation as mRNA capping reagents” (Nucleic Acids Research, 2024).
# Target: T1, human eIF4E1a (Homo sapiens, UniProt P06730)
# T1 construct: made in house; host or cells: E. coli Rosetta 2 (DE3)pLysS
# Experiment: Fluorescence quenching titration (FQT) binding assay with eIF4E
# Experimental: The human eIF4E1a protein was expressed without affinity tag in E. coli Rosseta 2 (DE3)pLysS strain (Novagen) under conditions leading to accumulation of the produced protein in inclusion bodies ([48]). The protein was extracted from inclusion bodies with buffer containing 6 M guanidine hydrochloride, refolded by one-step dialysis against 50 mM HEPES/KOH (pH 7.2), 100 mM KCl, 0.5 mM EDTA, 2 mM DTT, and purified by ion exchange chromatography on HiTrap SP HP 5 ml column (GE Healthcare) using salts gradient. Finally, protein was filtered using Ultrafree MC-HV Centrifugal PVDF filters with 0.45 μm membrane pore (Millipore) to remove protein aggregates and its concentration was determined spectrophotometrically assuming the theoretical extinction coefficient ϵ280nm = 52 940 L mol^−1cm^−1—calculated from amino acid composition using algorithm on ExPASy Server.
# Fluorescence titration measurements were carried out on a LS-55 spectrofluorometer (Perkin Elmer Co., Norwalk, CT, USA) in a quartz semi-micro cuvette (Hellma, Germany) with optical lengths 4 mm and 10 mm for absorption and emission, respectively, which was thermostated at 20.0 ± 0.2 °C. The titrations were performed in 50 mM Hepes/KOH pH 7.2, 100 mM KCl, 0.5 mM EDTA and 1 mM DTT by adding 1 μl aliquots of increasing concentrations of the cap solutions to 1.4 ml of 0.1 μM eIF4E1a solution. The eIF4E1a fluorescence was excited at 280 nm and the fluorescence intensity was monitored at a single wavelength 340 nm. The measured fluorescence intensities were corrected for dilution (<4%) and for the inner filter effect. Association equilibrium constants (Kas) were obtained by fitting the theoretical curve for fluorescence intensity (F) upon total concentration of cap analogs ([L]) to the titration data according to the equation: […]
# with the concentration of the cap analogs–eIF4E1a complex [cx] given by:
# where Δϕ stands for the difference between the fluorescence efficiencies of the apo- and cap analog bound proteins; ϕlig-free is the fluorescence efficiency of the free cap analog; F(0) is the initial fluorescence, and Pact is the total concentration of the active protein ([49]). The final KAS values were calculated as a weighted average from three independent titrations and represented as the KD values. Numerical least-squares nonlinear regression analysis was performed using ORIGIN 2021 from Microcal Software Inc., USA.
# Recognition of the mRNA 5′ cap by translation initiation factor 4E (eIF4E) is considered to be the rate-limiting step for the entire translation process ([63],[64]), therefore we investigated the affinity of novel trinucleotide cap analogs to the canonical human eIF4E1a protein by fluorescence quenching titration (FQT; Table 1 column 1, Figure 3) ([65]). As a reference, we determined the dissociation constant between heIF4E1a and the trinucleotide cap-1 structure m^7GpppAmpG, which was equal to 42 nM and very close to the analogous value previously determined for mouse Δ27NeIF4E (46 nM) ([12]). In the case of all modifications tested, the KD values for cap-heIF4E1a complexes are consistent with the results previously obtained for dinucleotide counterparts and murine eIF4E protein, although the magnitude of the modification effect is generally lower. The most tightly bound tetraphosphate analogs (compounds 10–12) show KD values of 6–7 nM, which means that their affinity is about 6-fold higher compared to the triphosphate counterparts. The affinities decrease upon CH2 or CCl2 modification of the tetraphosphate bridge (compounds 13–16), but they are still 4–5 times higher than for the triphosphate analogs with the same adenosine methylation pattern.
# T1 sequence (P06730 whole entry): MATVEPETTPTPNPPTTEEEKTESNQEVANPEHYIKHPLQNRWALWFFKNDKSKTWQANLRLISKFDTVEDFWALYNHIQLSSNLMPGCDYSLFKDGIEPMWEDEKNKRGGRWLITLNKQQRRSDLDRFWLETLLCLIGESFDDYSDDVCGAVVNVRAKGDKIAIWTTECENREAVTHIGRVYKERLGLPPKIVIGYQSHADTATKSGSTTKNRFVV
smiles,measurement,setting,value
"CO[C@@H]1[C@H](OP(=O)(O)OC[C@H]2O[C@@H](n3cnc4c(=O)[nH]c(N)nc43)[C@H](O)[C@@H]2O)[C@@H](CSP(=O)([O-])OP(=O)(O)OP(=O)(O)OC[C@H]2O[C@@H](n3c[n+](C)c4c(O)nc(N)nc43)[C@H](O)[C@@H]2O)O[C@H]1n1cnc2c(N)ncnc21 [Compound 8, m^7Gppp^5’SAmpG]",effect of modification on binding affinity for heIF4E1a (in words),compared to corresponding triphosphates,virtually no effect on binding affinity
same,Kd,"fluorescence quenching titration, 20 °C, pH 7.2, average of triplicates ± SD, read-out: heIF4E1a KD",48.7 ± 1.2 nM
